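Exposure lasted 48 hours, with cells grown in 96-well plates and compounds tested at five concentrations. GI50: concentration for 50% inhibition of growth.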 The source made the active and inactive calls. Rule as the data show it: active = GI50 up to about 1.1 µM and inactive = higher. A value given as a limit tells only on which side of the number the result lay.

What all share (experiment): NCI-60 cell line screen, 48 h
Assay [1] has as its system NCI-H226.
For assay [2], the system named is HCT-15.
The subject of assay [3] is IGROV-1.
For assay [4], the system named is ACHN.
Assay [5] has as its system T47D.
Assay [6] has as its system HT-29.
Assay [7] deals with COLO 205.
Assay [8] has as its system A549.
The test system of assay [9] is OVCAR-4.
The test system of assay [10] is DU-145.
Assay [11] deals with HL-60.
For assay [12], the system named is SNB-75.
The subject of assay [13] is 786-0.
Assay [14] deals with SK-OV-3.
The test system of assay [15] is MDA-MB-231.
Assay [16] concerns TK-10.
Assay [17] has as its system HCC 2998.
Assay [18] concerns SK-MEL-5.
The test system of assay [19] is HOP-62.
The test system of assay [20] is A498.

Take `CCOC(=O)C(NC(=O)c1ccccc1)(Nc1ccc(S(=O)(=O)Nc2nc(C)cc(C)n2)cc1)C(F)(F)F` (centres undefined): the GI50 in assay [1] was > 100 µM (inactive); in assay [2], above 100 µM; in assay [3] it was > 100 µM (inactive); in assay [4], > 100 µM (inactive); in assay [5], > 100 µM (inactive); in [6], > 100 µM (inactive). Also, the GI50 in assay [7], in [8], in assay [9], in assay [10], in [11] and in [12] was > 100 µM (inactive) each time. For the same molecule, the GI50 in [13] is > 100 µM (inactive); in assay [14], 0.778 µM (active); in assay [15], 86.5 µM (inactive); in assay [16] it was > 100 µM (inactive); in [17], > 100 µM (inactive); in [18] it was > 100 µM (inactive). Moreover, the GI50 in assay [19] was > 100 µM (inactive).

Regarding `C=C1C(=O)OC2CCN3CC=C(COC(=O)C(C)(O)C4(CO4)C1C)C23` (centres undefined), the GI50 in assay [1] was > 100 µM (inactive); in [2], above 100 µM; in [3], > 100 µM (inactive); in assay [4], > 100 µM (inactive); in assay [5] it was > 100 µM (inactive); in assay [6], > 100 µM (inactive). In addition, the GI50 in [7], in assay [8], in assay [9], in assay [10], in [20] and in [13] was > 100 µM (inactive) throughout. Besides, the GI50 in [14], in assay [15], in assay [16], in [17] and in [18] was > 100 µM (inactive) each time.

Turning to `O=C1NC(N2CCOCC2)=N/C1=C\c1cccs1`, the GI50 in assay [1] is > 100 µM (inactive); in assay [2], above 100 µM; in assay [3] it was > 100 µM (inactive); in [4], > 100 µM (inactive); in assay [5], > 100 µM (inactive); in assay [6], > 100 µM (inactive). The GI50 was > 100 µM (inactive) in assay [7]; > 100 µM (inactive) in [8]; > 100 µM (inactive) in assay [9]; > 100 µM (inactive) in assay [10]; > 100 µM (inactive) in assay [11]; 30.2 µM (inactive) in assay [12]. In addition, the GI50 in assay [13] was > 100 µM (inactive); in assay [14], > 100 µM (inactive); in [15], > 100 µM (inactive); in [16], > 100 µM (inactive); in [17], 4.65 µM (inactive); in assay [18], > 100 µM (inactive). In assay [19], the GI50 was > 100 µM (inactive).

As to `COc1ccccc1C(=O)NO`, the GI50 in assay [1] was > 100 µM (inactive); in [2], above 100 µM; in [3], > 100 µM (inactive); in assay [4], > 100 µM (inactive); in assay [5], > 100 µM (inactive); in assay [6], > 100 µM (inactive). Also, the GI50 in assay [7], in assay [8], in [9], in assay [10], in [11] and in assay [12] was > 100 µM (inactive) each time. The GI50 in assay [13], in [14], in [15], in assay [16], in assay [17] and in assay [18] was > 100 µM (inactive) throughout. The GI50 in assay [19] was > 100 µM (inactive).

The values are drawn from ChEMBL document CHEMBL1201862, “PubChem BioAssay data set” (2004).
